Results on one molecule are retold here after patent US20230355647A1, “Marker for determining anti-cancer effects of mitochondrial oxidative phosphorylation pathway inhibitor” (NANJING SHIJIANG MEDICINE TECHNOLOGY CO., LTD, priority 2020, published 2023).

pIC50: −log10 of the molar value.

What all share (assay type): cell-based
The test system of one experiment is NCI-H2081. In words: Cell viability (CellTiter-Glo), NCI-H2081. The conditions noted are these: Homo sapiens; NCI-H2081 cell line, 3-4 days of culture. As for the experimental part: (§1) Cell viability was detected using the Promega CellTiter-Glo kit, the kit reflected cell viability by directly measuring intracellular ATP content. The inhibitory effect (IC50 value) of Gboxin, a mitochondrial oxidative phosphorylation pathway inhibitor, on different tumor cell lines was tested in the Example. The name, source, and culture condition of each tumor cell line were as follows:
Cell line NCI-H2081 (ATCC, No. CRL-5920) was cultured in 5% fetal bovine serum-containing HITES medium (+P/S).
(§2) The above tumor cells were cultured in the relevant medium (+P/S), and incubated for 3 h, then the gradient diluted Gboxin was added, and IC50 (50% inhibiting concentration) was measured after 3-4 days of culture.
(In general: In ATP-based viability assays light output follows the ATP content of the culture.)

A further experiment concerns Gp2D. As to the kind of experiment: Cell viability (CellTiter-Glo), Gp2D. Conditions: Homo sapiens; Gp2D cell line, 3-4 days of culture. As for the experimental part: as §1
Cell line Gp2D (ECACC, No. 95090714) was cultured in 10% fetal bovine serum-containing DMEM medium (+P/S).
as §2

The subject of the next experiment is OCI-AML-4. In words: Cell viability (CellTiter-Glo), OCI-AML-4. Conditions: OCI-AML-4 cell line, 3-4 days of culture. The protocol:
as §1
Cell line OCI-AML-4 (DSMZ, No. ACC-729) was cultured in alpha-MEM medium containing 20% fetal bovine serum and 20% volume fraction of 5637 cell line adjusted medium (+P/S).
as §2

The next experiment concerns G-401. As to the kind of experiment: Cell viability (CellTiter-Glo), G-401. The conditions noted are these: Homo sapiens; G-401 cell line, 3-4 days of culture. As for the experimental part: as §1, with “follows: Cell line G-401 (ATCC, No. CRL-1441) was cultured in 10% fetal bovine serum-containing McCoy's 5a medium (+P/S). […] Cell viability was detected using the Promega CellTiter-Glo kit, the kit reflected cell viability by directly measuring intracellular ATP content.” for “follows:”

In the next experiment the test system is NCI-H1651. In words: Cell viability (CellTiter-Glo), NCI-H1651. The conditions noted are these: Homo sapiens; NCI-H1651 cell line, 3-4 days of culture. The protocol: as §1
Cell line NCI-H1651 (ATCC, No. CRL-5884) was cultured in 10% fetal bovine serum-containing ACL-4 medium (+P/S).
as §2

In the next experiment the test system is PC-3. As to the kind of experiment: Cell viability (CellTiter-Glo), PC-3. The conditions noted are these: Homo sapiens; PC-3 cell line, 3-4 days of culture. As for the experimental part:
as §1
Cell line PC-3 (ATCC, No. CRL-1435) was cultured in 10% fetal bovine serum-containing F-12K medium (+P/S).
as §2

A further experiment relates to NCI-H1793. In words: Cell viability (CellTiter-Glo), NCI-H1793. Conditions: Homo sapiens; NCI-H1793 cell line, 3-4 days of culture. The protocol: as §1
Cell line NCI-H1793 (ATCC, No. CRL-5896) was cultured in 5% fetal bovine serum-containing HITES medium (+P/S).
as §2

A further experiment has as its system SU.86.86. As to the kind of experiment: Cell viability (CellTiter-Glo), SU.86.86. Conditions: Homo sapiens; SU.86.86 cell line, 3-4 days of culture. The protocol: as §1
Cell line SU.86.86 (ATCC, No. CRL-1837) was cultured in 10% fetal bovine serum-containing RPMI1640 medium (+P/S).
as §2

In another experiment the test system is D283 Med. As to the kind of experiment: Cell viability (CellTiter-Glo), D283 Med. Conditions: Homo sapiens; D283 Med cell line, 3-4 days of culture. As for the experimental part: as §1
Cell line D283 Med (ATCC, No. HTB-185) was cultured in 10% fetal bovine serum-containing EMEM medium (+P/S).
as §2

The subject of the next experiment is SNU-449. As to the kind of experiment: Cell viability (CellTiter-Glo), SNU-449. Conditions: Homo sapiens; SNU-449 cell line, 3-4 days of culture. The protocol: as §1
Cell line SNU-449 (ATCC, No. CRL-2234) was cultured in 10% fetal bovine serum-containing RPMI1640 medium (+P/S).
as §2

A further experiment deals with GB-1. In words: Cell viability (CellTiter-Glo), GB-1. The conditions noted are these: Homo sapiens; GB-1 cell line, 3-4 days of culture. The protocol:
as §1
Cell line GB-1 (JCRB, No. IFO50489) was cultured in 10% fetal bovine serum-containing DMEM medium (+P/S).
as §2
Cell viability was detected using the Promega CellTiter-Glo kit, the kit reflected cell viability by directly measuring intracellular ATP content. In this experiment, the IC50 values of Oligomycin A or IACS-010759, a mitochondrial oxidative phosphorylation pathway inhibitor, on different tumor cells was determined.
The different tumor cells were cultured in the relevant medium (+P/S) as shown in Example 2, and incubated for 3 h, then the gradient diluted Oligomycin A or IACS-010759 was added respectively, and IC50 (50% inhibiting concentration) of Oligomycin A or IACS-010759 on different tumor cells was measured after 3-4 days of culture.

The test system of the next experiment is HCC15. In words: Cell viability (CellTiter-Glo), HCC15. The conditions noted are these: HCC15 cell line, 3-4 days of culture. The protocol: as §1
Cell line HCC15 (KCLB, No. 70015) was cultured in 10% fetal bovine serum-containing RPMI1640 medium (+P/S).
as §2

For another experiment, the system named is DU 145. As to the kind of experiment: Cell viability (CellTiter-Glo), DU 145. Conditions: Homo sapiens; DU 145 cell line, 3-4 days of culture. As for the experimental part: as §1
Cell line DU 145 (ATCC, No. HTB-81) was cultured in 10% fetal bovine serum-containing EMEM medium (+P/S).
as §2

The subject of the next experiment is OCI-AML-5. In words: Cell viability (CellTiter-Glo), OCI-AML-5. Conditions: Homo sapiens; OCI-AML-5 cell line, 3-4 days of culture. As for the experimental part:
as §1
Cell line OCI-AML-5 (DSMZ, No. ACC-247) was cultured in alpha-MEM medium containing 20% fetal bovine serum and 10% volume fraction of 5637 cell line adjusted medium (+P/S).
as §2

A further experiment relates to MJ. As to the kind of experiment: Cell viability (CellTiter-Glo), MJ. The conditions noted are these: Homo sapiens; MJ cell line, 3-4 days of culture. The protocol: as §1
Cell line MJ (ATCC, No. CRL-8294) was cultured 20% fetal bovine serum-containing IMDM medium (+P/S).
as §2

In another experiment the test system is G-402. As to the kind of experiment: Cell viability (CellTiter-Glo), G-402. Conditions: Homo sapiens; G-402 cell line, 3-4 days of culture. The protocol:
as §1
Cell line G-402 (ATCC, No. CRL-1440) was cultured in 10% fetal bovine serum-containing McCoy's 5a medium (+P/S).
as §2

The subject of the next experiment is G-361. In words: Cell viability (CellTiter-Glo), G-361. Conditions: Homo sapiens; G-361 cell line, 3-4 days of culture. As for the experimental part:
as §1
Cell line G-361 (ATCC, No. CRL-1424) was cultured in 10% fetal bovine serum-containing McCoy's 5a medium (+P/S).
as §2

For `CCc1n(CC(=O)O[C@@H]2C[C@H](C)CC[C@H]2C(C)C)c2ccccc2[n+]1C.[Cl-]` [Gboxin], the pIC50 (commonly the IC50 on a negative log10 scale, so that one unit is a factor of ten) in the experiment with NCI-H2081 is 4.86; in the experiment on Gp2D it was 4.88; in the experiment with OCI-AML-4, 5.48; in the experiment on G-401 it was 6.11; with NCI-H1651, 4.65; in the experiment with PC-3, 4.67. Further, the pIC50 is 4.80 with NCI-H1793; 4.86 in the experiment with SU.86.86; 5.32 in the experiment on D283 Med; less than 4.52 with SNU-449; less than 4.52 with GB-1; 5.65 with HCC15. Also, the pIC50 in the experiment with DU 145 was 5.00; in the experiment with OCI-AML-5, 5.56; with MJ, 4.89; with G-402, 5.55; in the experiment with G-361, 5.41.
